Tested on: polymerase
Experiment: Amplification plots and Cq of gene targets, Dt4 compared with Tween 20 and Brij-58
Assay type: biochemical
Conditions: B2M, GAPDH, RPLPO; FIGS. 16-18
Text: All amplification plots shown herein graphically represent target nucleic acid amplification as ΔRn (y-axis) as a function of cycle number (x-axis).
FIGS. 7A through 7D and FIGS. 8A through 8D provide a comparison between Dt4 and Tween® 20 in amplifying four different targets (B2M, GAPDH, RPLPO, and GUSB).
FIG. 9 provides a comparison between Dt4 and Tween® 20 in amplifying various different targets.
FIGS. 11A and 11B, FIGS. 12A and 12B, FIGS. 13A and 13B, FIGS. 14A and 14B, FIGS. 15A and 15B show amplification plots comparing the activity of Dt4 to Brij-58 and Tween® 20 at various concentrations in amplifying HPRT1 or PPIA.
FIGS. 16-18 illustrate that Dt4 may be used at a lower concentration than Tween® 20 in various reactions (e.g., 0.002% Dt4 compared to 0.01% Tween® 20).

Tween® 20
concentration used in amplification reactions: 0.01%

From patent publication US11479814B2, “Compounds for use in PCR systems and applications thereof” (LIFE TECHNOLOGIES CORPORATION, priority 2013, dated 2022)
